Results from ChEMBL document CHEMBL2413072, “Synthesis and in vitro anticancer studies of novel C-2 arylidene congeners of lantadenes” (2013).

How the values were obtained:
Type in all cases: functional
CAKI-1 = assay: Growth inhibition of human CAKI-1 cells assessed as cell growth at 10^-8 M by sulforhodamine B assay; conditions: read-out: Activity
NCI-H322M = assay: Growth inhibition of human NCI-H322M cells assessed as cell growth at 10^-4 M by sulforhodamine B assay; conditions: read-out: Activity
HOP-62 [1] = assay: Growth inhibition of human HOP62 cells assessed as cell growth at 10^-8 M by sulforhodamine B assay; conditions: read-out: Activity
OVCAR-4 [2] = assay: Growth inhibition of human OVCAR4 cells assessed as cell growth at 10^-6 M by sulforhodamine B assay; conditions: read-out: Activity
OVCAR-3 = assay: Growth inhibition of human OVCAR3 cells assessed as cell growth at 10^-7 M by sulforhodamine B assay; conditions: read-out: Activity
RPMI-8226 [3] = assay: Growth inhibition of human RPMI8226 cells assessed as cell growth at 10^-8 M by sulforhodamine B assay; conditions: read-out: Activity
HL-60(TB) = assay: Growth inhibition of human HL-60(TB) cells assessed as cell growth at 10^-6 M by sulforhodamine B assay; conditions: read-out: Activity
MDA-MB-435 = assay: Growth inhibition of human MDA-MB-435 cells assessed as cell growth at 10^-6 M by sulforhodamine B assay; conditions: read-out: Activity
RPMI-8226 [4] = assay: Growth inhibition of human RPMI8226 cells assessed as cell growth at 10^-7 M by sulforhodamine B assay; conditions: read-out: Activity
IGROV-1 [5] = assay: Growth inhibition of human IGROV1 cells assessed as cell growth at 10^-7 M by sulforhodamine B assay; conditions: read-out: Activity
RPMI-8226 [6] = assay: Growth inhibition of human RPMI8226 cells assessed as cell growth at 10^-6 M by sulforhodamine B assay; conditions: read-out: Activity
K562 = assay: Growth inhibition of human K562 cells assessed as cell growth at 10^-6 M by sulforhodamine B assay; conditions: read-out: Activity
UACC-62 = assay: Growth inhibition of human UACC62 cells assessed as cell growth at 10^-4 M by sulforhodamine B assay; conditions: read-out: Activity
OVCAR-4 [7] = assay: Growth inhibition of human OVCAR4 cells assessed as cell growth at 10^-4 M by sulforhodamine B assay; conditions: read-out: Activity
HCT-116 = assay: Growth inhibition of human HCT116 cells assessed as cell growth at 10^-8 M by sulforhodamine B assay; conditions: read-out: Activity
Malme-3M = assay: Growth inhibition of human MALME-3M cells assessed as cell growth at 10^-7 M by sulforhodamine B assay; conditions: read-out: Activity
DU-145 = assay: Growth inhibition of human DU145 cells assessed as cell growth at 10^-4 M by sulforhodamine B assay; conditions: read-out: Activity
SNB-75 = assay: Growth inhibition of human SNB75 cells by sulforhodamine B assay
IGROV-1 [8] = assay: Growth inhibition of human IGROV1 cells assessed as cell growth at 10^-6 M by sulforhodamine B assay; conditions: read-out: Activity
MDA-MB-231 [9] = assay: Growth inhibition of human MDA-MB-231 cells assessed as cell growth at 10^-7 M by sulforhodamine B assay; conditions: read-out: Activity
LOX IMVI = assay: Growth inhibition of human LOXIMVI cells assessed as cell growth at 10^-6 M by sulforhodamine B assay; conditions: read-out: Activity
MDA-MB-231 [10] = assay: Growth inhibition of human MDA-MB-231 cells assessed as cell growth at 10^-6 M by sulforhodamine B assay; conditions: read-out: Activity
SK-MEL-5 = assay: Growth inhibition of human SK-MEL-5 cells assessed as cell growth at 10^-7 M by sulforhodamine B assay; conditions: read-out: Activity
U-251 = assay: Growth inhibition of human U251 cells by sulforhodamine B assay
SNB-19 = assay: Growth inhibition of human SNB19 cells assessed as cell growth at 10^-7 M by sulforhodamine B assay; conditions: read-out: Activity
HOP-62 [11] = assay: Growth inhibition of human HOP62 cells assessed as cell growth at 10^-7 M by sulforhodamine B assay; conditions: read-out: Activity
NCI-H460 = assay: Growth inhibition of human NCI-H460 cells by sulforhodamine B assay
UO-31 = assay: Growth inhibition of human UO31 cells assessed as cell growth at 10^-7 M by sulforhodamine B assay; conditions: read-out: Activity
HT-29 [12] = assay: Growth inhibition of human HT-29 cells assessed as cell growth at 10^-8 M by sulforhodamine B assay; conditions: read-out: Activity
SF-539 = assay: Growth inhibition of human SF539 cells assessed as cell growth at 10^-8 M by sulforhodamine B assay; conditions: read-out: Activity
HT-29 [13] = assay: Growth inhibition of human HT-29 cells assessed as cell growth at 10^-6 M by sulforhodamine B assay; conditions: read-out: Activity
KM12 = assay: Growth inhibition of human KM12 cells by sulforhodamine B assay
RXF 393 = assay: Growth inhibition of human RXF393 cells by sulforhodamine B assay
OVCAR-5 = assay: Growth inhibition of human OVCAR5 cells assessed as cell growth at 10^-7 M by sulforhodamine B assay; conditions: read-out: Activity
SK-MEL-28 = assay: Growth inhibition of human SK-MEL-28 cells assessed as cell growth at 10^-7 M by sulforhodamine B assay; conditions: read-out: Activity
TK-10 = assay: Growth inhibition of human TK10 cells assessed as cell growth at 10^-8 M by sulforhodamine B assay; conditions: read-out: Activity
MOLT-4 = assay: Growth inhibition of human MOLT4 cells assessed as cell growth at 10^-4 M by sulforhodamine B assay; conditions: read-out: Activity
NCI-H226 = assay: Growth inhibition of human NCI-H226 cells assessed as cell growth at 10^-7 M by sulforhodamine B assay; conditions: read-out: Activity
CCRF-CEM = assay: Growth inhibition of human CCRF-CEM cells assessed as cell growth at 10^-6 M by sulforhodamine B assay; conditions: read-out: Activity
ACHN = assay: Growth inhibition of human ACHN cells assessed as cell growth at 10^-7 M by sulforhodamine B assay; conditions: read-out: Activity
SF-295 = assay: Growth inhibition of human SF295 cells assessed as cell growth at 10^-8 M by sulforhodamine B assay; conditions: read-out: Activity
PC-3 = assay: Growth inhibition of human PC3 cells by sulforhodamine B assay
[14] = read-out: LC50 (the source's name)
[15] = read-out: pLC50 (the source's name) (converted)

SMILES: C/C=C(/C)C(=O)O[C@@H]1CC(C)(C)C[C@H]2C3=CC[C@@H]4[C@@]5(C)CC[C@H](O)C(C)(C)[C@@H]5CC[C@@]4(C)[C@]3(C)CC[C@@]12C(=O)O [Reduced Lantadene A]
- growth at 0.01 µM (CAKI-1): 96%
- growth at 100 µM (NCI-H322M): -71%
- growth at 0.01 µM (HOP-62 [1]): 93%
- growth at 1 µM (OVCAR-4 [2]): 88%
- growth at 0.1 µM (OVCAR-3): 112%
- growth at 0.01 µM (RPMI-8226 [3]): 96%
- growth at 1 µM (HL-60(TB)): 99%
- growth at 1 µM (MDA-MB-435): 90%
- growth at 0.1 µM (RPMI-8226 [4]): 92%
- growth at 0.1 µM (IGROV-1 [5]): 111%
- growth at 1 µM (RPMI-8226 [6]): 70%
- growth at 1 µM (K562): 85%
- growth at 100 µM (UACC-62): -70%
- growth at 100 µM (OVCAR-4 [7]): -21%
- growth at 0.01 µM (HCT-116): 97%
- growth at 0.1 µM (Malme-3M): 94%
- growth at 100 µM (DU-145): -46%
- GI50 (SNB-75; read-out: GI50): 1.77 µM
- CC50 (SNB-75; [14]): > 100 µM
- TGI (SNB-75; read-out: TGI): 5.37 µM
- GI50 (SNB-75; read-out: pGI50 (converted)): 1.78 µM
- CC50 (SNB-75; [15]): > 100 µM
- TGI (SNB-75; read-out: pTGI (converted)): 5.37 µM
- growth at 1 µM (IGROV-1 [8]): 111%
- growth at 0.1 µM (MDA-MB-231 [9]): 95%
- growth at 1 µM (LOX IMVI): 97%
- growth at 1 µM (MDA-MB-231 [10]): 89%
- growth at 0.1 µM (SK-MEL-5): 92%
- GI50 (U-251; read-out: GI50): 1.59 µM
- CC50 (U-251; [14]): 6.6 µM
- TGI (U-251; read-out: TGI): 3.24 µM
- GI50 (U-251; read-out: pGI50 (converted)): 1.58 µM
- CC50 (U-251; [15]): 6.61 µM
- TGI (U-251; read-out: pTGI (converted)): 3.24 µM
- growth at 0.1 µM (SNB-19): 90%
- growth at 0.1 µM (HOP-62 [11]): 95%
- GI50 (NCI-H460; read-out: GI50): 2.84 µM
- LC50 (NCI-H460; read-out: LC50): > 100 µM
- TGI (NCI-H460; read-out: TGI): 11.7 µM
- GI50 (NCI-H460; read-out: pGI50 (converted)): 2.82 µM
- LC50 (NCI-H460; read-out: pLC50 (converted)): > 100 µM
- TGI (NCI-H460; read-out: pTGI (converted)): 11.7 µM
- growth at 0.1 µM (UO-31): 96%
- growth at 0.01 µM (HT-29 [12]): 104%
- growth at 0.01 µM (SF-539): 100%
- growth at 1 µM (HT-29 [13]): 105%
- GI50 (KM12; read-out: GI50): 1.35 µM
- TGI (KM12; read-out: TGI): 2.93 µM
- GI50 (KM12; read-out: pGI50 (converted)): 1.35 µM
- TGI (KM12; read-out: pTGI (converted)): 2.95 µM
- GI50 (RXF 393; read-out: GI50): 1.77 µM
- CC50 (RXF 393; [14]): 8.29 µM
- TGI (RXF 393; read-out: TGI): 3.83 µM
- GI50 (RXF 393; read-out: pGI50 (converted)): 1.78 µM
- CC50 (RXF 393; [15]): 8.32 µM
- TGI (RXF 393; read-out: pTGI (converted)): 3.8 µM
- growth at 0.1 µM (OVCAR-5): 103%
- growth at 0.1 µM (SK-MEL-28): 88%
- growth at 0.01 µM (TK-10): 103%
- growth at 100 µM (MOLT-4): -36%
- growth at 0.1 µM (NCI-H226): 94%
- growth at 1 µM (CCRF-CEM): 90%
- growth at 0.1 µM (ACHN): 101%
- growth at 0.01 µM (SF-295): 93%
- GI50 (PC-3; read-out: GI50): 1.34 µM
- CC50 (PC-3; [14]): 6.01 µM
- TGI (PC-3; read-out: TGI): 2.84 µM
- GI50 (PC-3; read-out: pGI50 (converted)): 1.35 µM
- CC50 (PC-3; [15]): 6.03 µM
- TGI (PC-3; read-out: pTGI (converted)): 2.82 µM
